# Measured values as given in patent US20100099614A1, “Antimicrobial Peptides and Methods of Use” (priority 2008, published 2010).
# Several values for one entry are separate records, joined by “and”; a condition that tells them apart may be missing. Equal values may be shown once. Read-outs that look alike come from different tables or passages of the source.
# Legend:
# [1] = tested on: Mycobacterium tuberculosis strain H37Rv
# [2] = tested on: Interleukin-6 (IL-6); assay: Cytokine assay, stimulation of peripheral blood mononuclear cells, ELISA; format: cell-based, human
# Procedure: (§1) Isolation of peripheral blood mononuclear cells (PBMCs) from 5 healthy individuals was performed as described elsewhere (108). Briefly, venous blood was drawn into 10 ml tubes containing 0.2 mg of EDTA (Monoject's-Hertogenbosch, NL). The PBMC fraction was obtained by density centrifugation of blood using Ficoll-Paque (Pharmacia Biotech AB, Sweden). […] The PBMCs were incubated in 96-well tissue culture plates (Greiner, Alphen, NL) at a concentration of 5×10^5 cells per well in a total volume of 200 μl, in the presence or absence of a set of stimuli in different experiments. […] After 24 h of incubation, the supernatants were collected and stored at -80° C. until analysis. Interleukin-6 (IL-6) and tumor necrosis factor (TNF) were measured by ELISA according to the manufacturer's protocol ([…], CLB, Amsterdam, NL). […] Agilent Technologies) with a linear AB gradient (0.2% acetonitrile/min) at a flow rate of 2 ml/min, where mobile phase A was 0.1% aqueous TFA in water and B was 0.1% TFA in acetonitrile. The purity of peptides was verified by analytical RP-HPLC. The peptides were further characterized by electrospray mass spectrometry and amino acid analysis.
# [3] = tested on: tumor necrosis factor (TNF); assay: as above; format: cell-based, human
# Procedure: as §1
# [4] = tested on: Zygomycota fungi
# [5] = tested on: Gram-positive bacteria
# [6] = tested on: Ascomycota fungi; conditions: Ascomycota fungi
# [7] = Helical structure by circular dichroism spectroscopy; format: physicochemical; conditions: 222 nm
# Procedure: The mean residue molar ellipticities of peptides were determined by circular dichroism (CD) spectroscopy, using a Jasco J-810 spectropolarimeter (Easton, Md.) at 5° C. under benign (non-denaturing) conditions (50 mM NaH2PO4/Na2HPO4/100 mM KCl, pH 7.0), hereafter referred to as benign buffer, as well as in the presence of an α-helix inducing solvent, 2,2,2-trifluoroethanol, TFE, (50 mM NaH2PO4/Na2HPO4/[…], pH 7.0 buffer/50% TFE). A 10-fold dilution of an approximately […] stock solution of the peptide analogs was loaded into a 0.1 cm quartz cell and its ellipticity scanned from 195 to 250 nm. The values of molar ellipticities of the peptide analogs at a wavelength of 222 nm were used to estimate the relative α-helicity of the peptides.
# [8] = Peptide hydrophobicity by RP-HPLC retention; format: physicochemical; conditions: pH 2, room temperature
# Procedure: Peptide Synthesis and Purification—Syntheses of the peptides were carried out by solid-phase peptide synthesis using t-butyloxycarbonyl chemistry and MBHA (4-methylbenzhydrylamine) resin (0.97 mmol/g), followed by cleavage of the peptide from the resin as described previously (117-119). However, it is understood in the art that there are other suitable instruments and methods for automated or manual peptide synthesis that could be employed to produce the peptides described herein. Peptide purification was performed by reversed-phase high-performance liquid chromatography (RP-HPLC) on a Zorbax 300 SB-C8 column (250×9.4 mm I.D.; 6.5 μm particle size, 300 Å pore size; Agilent Technologies, Little Falls, Del.) with a linear AB gradient (0.1% acetonitrile/min) at a flow rate of 2 mL/min, where eluent A was 0.2% aqueous trifluoroacetic acid (TFA), pH 2, and eluent B was 0.2% TFA in acetonitrile, where the shallow 0.1% acetonitrile/min gradient started 12% below the acetonitrile concentration required to elute the peptide on injection of analytical sample using a gradient of 1% acetonitrile/min (113). The purity of the peptides was verified by analytical RP-HPLC as described below and further characterized by mass spectrometry and amino acid analysis. Crude and purified peptides were analyzed on an Agilent 1100 series liquid chromatograph. Runs were performed on a Zorbax 300 SB-C8 column (150×2.1 mm I.D.; 5 μm particle size, 300 Å pore size) from Agilent Technologies using a linear AB gradient (1% acetonitrile/min) and a flow rate of 0.25 mL/min, where eluent A was 0.2% aqueous TFA, pH 2, and eluent B was 0.2% TFA in acetonitrile.
# Analytical RP-HPLC of Peptides—Peptides were analyzed on an Agilent 1100 series liquid chromatograph (Little Falls, Del.). Runs were performed on a Zorbax 300 SB-C8 column (150×2.1 mm I.D.; 5 μm particle size, 300 Å pore size) from Agilent Technologies using linear AB gradient (1% acetonitrile/min) and a flow rate of 0.25 ml/min, where solvent A was 0.05% aqueous TFA, pH 2 and solvent B was 0.05% TFA in acetonitrile. Temperature profiling analyses were performed in 3° C. increments, from 5° C. to 80° C.
# [9] = tested on: human red blood cells; assay: Hemolytic activity (MHC50/HC50), 18 h microtiter dilution; format: cell-based; conditions: red cells of human, 18 h
# Procedure: Hemoglobin release was determined spectrophotometrically at 570 nm. […] MHC50 was determined by plot the concentration-lysis format.
# [10] = tested on: Gram-negative bacteria; assay: Antibacterial activity (MIC), microtiter dilution; format: cell-based
# Procedure: MICs were determined by a standard microtiter dilution method in Mueller Hinton Broth (MHB). Serial dilutions of the 10× compound were added to the microtiter plates in a volume of 10 μL followed by 90 μL of bacteria for an inoculum of 5×10^5 colony-forming units (CFU)/mL. The plates were incubated at 37° C. for 24 h, and the MICs were determined as the lowest peptide concentration that inhibited growth. […]
# Alternatively; minimal inhibitory concentrations were determined using a standard microtiter dilution method in a Mueller-Hinton (MH) medium. Briefly, cells were grown overnight at 37° C. in MH broth and diluted in the same medium. Serial dilutions of the peptides were added to the microtiter plates in a volume of 100 μl followed by 10 μl of bacteria for an initial cell concentration of 1×10^5 CFU/ml. Plates were incubated at 37° C. for 24 hours and MICs determined as the lowest peptide concentration that inhibited growth.
# [11] = tested on: Mycobacterium tuberculosis strain H37Rv; assay: microbe, parasite or virus in culture
# [12] = 50% trifluoroethanol (TFE), 5° C.; cited from earlier work
# [13] = biological target: Peptide D5, D-(V13K, A12L, A20L, A23L, V16K); assay: RP-HPLC temperature profiling at pH 2, maximal retention time difference against control peptide C; self-association
# [14] = biological target: Peptide D1, D-(V13K); assay: as above
# [15] = biological target: the molecule itself; assay: RP-HPLC temperature profiling, 5 to 80 C, pH 2 (self-association)
# Procedure: Thus, if the self-association ability of a peptide in aqueous media is too strong (e.g., forming stable folded dimers through interaction of their non-polar faces) this could decrease the ability of the peptide to dissociate to monomer where the dimer cannot effectively pass through the capsule and cell wall to reach the membrane. The ability of the peptides in the present study to self-associate was determined by the technique of RP-HPLC temperature profiling at pH 2 (30,29,42). The reason pH 2 is used to determine self-association of cationic AMPs is that highly positively charged peptides are frequently not eluted from reversed-phase columns at pH 7 due to non-specific binding to negatively charged silanols on the column matrix. This is not a problem at pH 2 since the silanols are protonated (i.e., neutral) and non-specific electrostatic interactions are eliminated. At pH 2, the interactions between the peptide and the reversed-phase matrix involve ideal retention behavior, i.e., only hydrophobic interactions between the preferred binding domain (nonpolar face) of the amphipathic molecule and the hydrophobic surface of the column matrix are present (39). […]
# [16] = peptide concentration 0.01 μg/ml
# [17] = peptide concentration 100 μg/ml
molecule,measurement,setting,value
CC[C@@H](C)[C@@H](NC(=O)[C@@H](CC(C)C)NC(=O)[C@@H](CCCCN)NC(=O)[C@@H](CC(C)C)NC(=O)[C@@H](CC(C)C)NC(=O)[C@H](NC(=O)[C@@H](Cc1c[nH]cn1)NC(=O)[C@@H](CC(C)C)NC(=O)[C@@H](CCCCN)NC(=O)[C@H](NC(=O)[C@@H](CCCCN)NC(=O)[C@@H](CCCCN)NC(=O)[C@@H](CC(C)C)NC(=O)[C@@H](CO)NC(=O)[C@@H](CCCCN)NC(=O)[C@@H](Cc1ccccc1)NC(=O)[C@H](NC(=O)[C@@H](CCCCN)NC(=O)[C@@H](CC(C)C)NC(=O)[C@@H](Cc1ccccc1)NC(=O)[C@@H](CO)NC(=O)[C@@H](CCCCN)NC(=O)[C@@H](Cc1c[nH]c2ccccc12)NC(=O)[C@@H](CCCCN)NC(C)=O)[C@H](C)O)[C@H](C)O)[C@H](C)O)C(=O)N[C@H](CO)C(=O)N[C@H](CO)C(N)=O [D5],reduction in viability (CFU/ml),"[1]; 100 μg/ml (31.7 μM), 7 days incubation vs day 0",about 100 fold
same,Anti-tuberculosis activity to H37Rv strain Fold (compared to D4),"[1]; further experiments, relative to D4",4.9 fold
same,IL-6 Exp 1,[2]; [16],<3 pg/mL
same,IL-6 Exp 2,[2]; [16],<3 pg/mL
same,IL-6 Exp 1,[2]; peptide concentration 1 μg/ml,<3 pg/mL
same,IL-6 Exp 1,[2]; [17],<3 pg/mL
same,IL-6 Exp 2,[2]; [17],<3 pg/mL
same,TNF Exp 1,[3]; [16],<0.015 ng/mL
same,TNF Exp 2,[3]; [16],<0.015 ng/mL
same,TNF Exp 1,[3]; peptide concentration 1 μg/ml,<0.015 ng/mL
same,TNF Exp 2,[3]; peptide concentration 1 μg/ml,<0.015 ng/mL
same,increase in antifungal activity relative to D4,[4]; Zygomycota fungi,16 fold
same,"Fold improvement in antifungal activity (geometric mean data) compared to that of D4, Zygomycota fungi",[4]; relative to D4,16.0 fold
same,"MIC GM (geometric mean of the MIC values), Gram-positive bacteria",[5]; 24 h,9.0 µg/mL
same,increase in antibacterial activity compared to D4,[5]; gram-positive bacteria,2 fold
same,"Fold improvement in antimicrobial activity (geometric mean data) compared to that of D4, Gram-positive bacteria",[5]; relative to D4,1.8 fold
same,antifungal activity relative to D4,[6],maintained the same level
same,50% TFE [θ]222 (mean residue molar ellipticity),[7]; benign buffer containing 50% trifluoroethanol,"35,500 deg cm^2/dmol"
same,Benign [θ]222 (mean residue molar ellipticity),"[7]; benign conditions (100 mM KCl, 50 mM NaH2PO4/Na2HPO4, pH 7.0)","3,700 deg cm^2/dmol"
same,Hydrophobicity tR (retention time in RP-HPLC),[8],80.4 min
same,Hemolytic activity HC50,[9],14.9 µM
same,increase in antibacterial activity compared to D4,[10]; gram-negative bacteria,2 fold
same,"Fold improvement in antimicrobial activity (geometric mean data) compared to that of D4, Gram-negative bacteria",[10]; relative to D4,2.2 fold
same,"MIC GM (geometric mean of the MIC values), Gram-negative bacteria","[10]; six Gram-negative strains, 128 μg/mL used where no activity at 64 μg/mL",10.1 µg/mL
CO[C@H]1/C=C/O[C@@]2(C)Oc3c(C)c(O)c4c(O)c(c(/C=N/N5CCN(C)CC5)c(O)c4c3C2=O)NC(=O)/C(C)=C\C=C\[C@H](C)[C@H](O)[C@@H](C)[C@@H](O)[C@@H](C)[C@H](OC(C)=O)[C@@H]1C [rifampin],MIC,"[11]; 168 h, read-out: Anti-tuberculosis activity MIC",0.033 µM and 0.027 µg/mL
same,MIC,[11]; read-out: Anti-tuberculosis activity to H37Rv strain MIC,0.033 µM and 0.027 µg/mL
Ac-ELEKGGLEGEKGGKELEK-amide (Ac-ELEKGGLEGEKGGKELEK-NH2) [peptide C],[θ]222,[12],"−3,950"
"KWKSFLKTFKSLKKTKLHTLLKLISS (all residues D-amino acids; N-terminal Nα-acetyl; C-terminal amide) [Peptide D5, D-(V13K, A12L, A20L, A23L, V16K)]",PA (dimerization / self-association parameter),[13],4.35
"KWKSFLKTFKSAKKTVLHTALKAISS (all residues D-amino acids; N-terminal Nα-acetyl; C-terminal amide) [Peptide D1, D-(V13K)]",PA (dimerization / self-association parameter),[14],2.78
Ac-ELEKGGLEGEKGGKELEK-NH2 [Control peptide C (random coil peptide)],binding result,[15],no binding
